Reference: patent US11413278B2, “Compounds and methods for promoting stress resistance” (priority 2015, dated 2022)
Where “and” joins values, the source holds several entries; their conditions need not be identical. Equal entries are not always repeated. Entries after “also recorded” stand apart in the source; their conditions may differ. Where two headings read alike, the source gives them in different places.

Key:
WI-38 cells = test: Propidium iodide (PI) cell-death imaging upon H2O2 stress; type: cell-based, human; conditions: for Assay 7: H2O2-resistant, at 10 uM, validated by propidium iodide (PI) cell-death imaging: w/H2O2, 3 hrs/4 hrs/5 hrs, YES/NO; for cytotoxicity at 10 µM: Homo sapiens, WI-38
human protein targets = conditions: PubChem database queries; cited from earlier work
SENP8 = biological target: T1, SENP8 (Homo sapiens, UniProt Q96LD8); conditions: Gr-1F: 3 screens, 10.0 μM to 12. μM; O13: 1 screen, 20. μM; cited from earlier work
T1 sequence (Q96LD8 1-212): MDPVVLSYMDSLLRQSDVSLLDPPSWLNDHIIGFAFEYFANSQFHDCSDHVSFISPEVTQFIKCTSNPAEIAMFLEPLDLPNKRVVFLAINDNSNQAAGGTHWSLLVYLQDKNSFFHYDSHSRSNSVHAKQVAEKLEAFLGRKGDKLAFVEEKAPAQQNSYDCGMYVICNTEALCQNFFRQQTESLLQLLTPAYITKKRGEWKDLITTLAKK

SENP6 = biological target: T2, SENP6 (Homo sapiens, UniProt Q9GZR1); conditions: 2 screens; 10.0 μM or 12. μM; cited from earlier work
T2 sequence (Q9GZR1 1-1112): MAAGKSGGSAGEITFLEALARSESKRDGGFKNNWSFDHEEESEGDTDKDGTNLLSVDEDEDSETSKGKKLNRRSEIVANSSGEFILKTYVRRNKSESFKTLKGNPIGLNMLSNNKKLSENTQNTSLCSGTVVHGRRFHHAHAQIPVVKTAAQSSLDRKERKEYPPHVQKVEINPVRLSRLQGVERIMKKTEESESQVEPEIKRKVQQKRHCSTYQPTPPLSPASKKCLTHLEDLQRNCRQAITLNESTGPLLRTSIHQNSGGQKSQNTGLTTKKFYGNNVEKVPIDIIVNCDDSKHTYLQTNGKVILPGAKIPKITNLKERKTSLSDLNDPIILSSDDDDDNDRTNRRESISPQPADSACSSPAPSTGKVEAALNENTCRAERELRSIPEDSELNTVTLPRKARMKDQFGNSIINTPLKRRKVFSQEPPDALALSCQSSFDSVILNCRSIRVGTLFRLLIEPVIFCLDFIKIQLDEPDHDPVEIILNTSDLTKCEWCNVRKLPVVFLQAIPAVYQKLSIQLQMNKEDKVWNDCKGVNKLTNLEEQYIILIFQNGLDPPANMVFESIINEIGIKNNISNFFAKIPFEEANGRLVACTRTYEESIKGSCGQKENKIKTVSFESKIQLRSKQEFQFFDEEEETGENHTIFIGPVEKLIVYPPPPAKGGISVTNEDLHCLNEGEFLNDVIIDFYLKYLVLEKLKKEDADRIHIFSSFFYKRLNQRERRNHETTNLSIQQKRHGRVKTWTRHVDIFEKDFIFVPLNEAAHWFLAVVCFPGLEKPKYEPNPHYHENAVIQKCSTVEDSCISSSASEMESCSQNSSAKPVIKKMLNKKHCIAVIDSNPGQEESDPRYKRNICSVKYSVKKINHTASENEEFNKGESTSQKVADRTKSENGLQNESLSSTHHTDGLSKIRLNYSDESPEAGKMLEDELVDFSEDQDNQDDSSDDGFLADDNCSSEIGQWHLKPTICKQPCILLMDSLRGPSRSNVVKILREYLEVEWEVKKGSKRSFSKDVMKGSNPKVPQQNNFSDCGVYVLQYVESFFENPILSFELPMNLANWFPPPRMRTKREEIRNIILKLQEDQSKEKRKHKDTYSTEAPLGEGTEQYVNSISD

in vitro = type: cell-based, human; conditions: human
NFKBIA = conditions: two screens; read-out: NFKBIA induction, EC50; cited from earlier work
[1] = tested on: HTB-178 lung tumor cells (EGFR+, PIK3CA+, RB1−, TP53−); test: Killing effects on HTB-178 tumor cells; type: cell-based, human; conditions: for Potential killing effects on HTB-178 tumor cells, 1st / Potential killing effects on HTB-178 tumor cells, 2nd: Assay 1(y), at 10 uM
DNA = test: Comet assay (DNA damage); type: cell-based; conditions: preliminary analysis
[2] = tested on: two breast cancer-derived tumor cell lines; test: Viability of breast cancer-derived tumor cell lines; type: cell-based; conditions: 5 μM
[3] = H2O2 3 hrs, 10 uM, n = 6, negative control 5.44% ± 0.79%, read-out: Percentage of propidium iodide-positive dead cells (under H2O2 stress treatment), 3 hrs
[4] = H2O2 4 hrs, 10 uM, n = 6, negative control 16.81% ± 1.42%, read-out: Percentage of propidium iodide-positive dead cells (under H2O2 stress treatment), 4 hrs
[5] = H2O2 5 hrs, 10 uM, n = 6, negative control 22.50% ± 1.53%, read-out: Percentage of propidium iodide-positive dead cells (under H2O2 stress treatment), 5 hrs
[6] = pre-treatment at 10 uM, 3.5 hours of H2O2, DMSO control 27.4% ± 6.5%, */**/*** = reduced by one/two/three standard deviations, read-out: Percentage of propidium iodide-positive dead cells (under H2O2 stress treatment), at 10 uM

Cc1ccc(NC(=O)c2ccc([N+](=O)[O-])o2)cc1C [Gr-1F]
Assay 7: H2O2-resistant, at 10 uM, validated by propidium iodide (PI) cell-death imaging (WI-38 cells; 10 uM): YES
cytotoxicity at 10 µM (WI-38 cells; [3]): 3.55%
cytotoxicity at 10 µM (WI-38 cells; [4]): 3.07%
cytotoxicity at 10 µM (WI-38 cells; [5]): 4.57%
cytotoxicity at 10 µM (WI-38 cells; [6]): 11.2%
Potential targets: human protein targets (confirmed) (human protein targets): CASP3, CFTR, GMNN, IDH1, IL1B, JAK2, SENP6, SENP7, SENP8, STAT1, and TDP1
SENP8 inhibition (SENP8): 60%-80%
SENP6 inhibition (SENP6): ~80%
cytotoxicity at 24 h, 10 uM (in vitro): 50%

O=[N+]([O-])c1ccccc1S(=O)(=O)Nc1cccc2cccnc12 [Gr-3A]
Assay 7: H2O2-resistant, at 10 uM, validated by propidium iodide (PI) cell-death imaging (WI-38 cells; 10 uM): YES
cytotoxicity at 10 µM (WI-38 cells; [3]): 5.54%
cytotoxicity at 10 µM (WI-38 cells; [6]): 12.4%
EC50 (NFKBIA): 11 µM and 12 µM
Potential targets: human protein targets (confirmed) (human protein targets): ADRBK1, APLNR, BARD1, BAZ2B, BRCA1, CCR6, DRD3, GMNN, IL1B,; also recorded: MDM2, MDM4, NFE2L2, NFKBIA, NOD1, NOD2, OPRK1, RBBP8, RELA,; also recorded: SIX1, SMAD3, TDP1

Nc1ccccc1S(=O)(=O)Nc1cccc2cccnc12 [Gr-3C]
Assay 7: H2O2-resistant, at 10 uM, validated by propidium iodide (PI) cell-death imaging (WI-38 cells; 10 uM): YES
cytotoxicity at 10 µM (WI-38 cells; [3]): 5.13%
cytotoxicity at 10 µM (WI-38 cells; [6]): 3.1%
EC50 (NFKBIA): 8.5 µM and 11 µM
Potential targets: human protein targets (confirmed) (human protein targets): GAPDH, NFKBIA, RELA

O=C(NCc1cccnc1)/C(=C\c1cccc(Oc2ccccc2)c1)S(=O)(=O)c1ccccc1 [Gr-7A]
Assay 7: H2O2-resistant, at 10 uM, validated by propidium iodide (PI) cell-death imaging (WI-38 cells; 10 uM): YES
cytotoxicity at 10 µM (WI-38 cells; [3]): 2.78%
cytotoxicity at 10 µM (WI-38 cells; [4]): 2.32%
cytotoxicity at 10 µM (WI-38 cells; [5]): 3.52%
cytotoxicity at 10 µM (WI-38 cells; [6]): 9.9%
Assay 21: Potential killing effects on HTB-178 tumor cells ([1]; 10 uM, YES/NO): YES
Toxicity / viability of HTB-178 lung tumor cells ([1]; 10 μM, preliminary data): exerted more pronounced toxicity; also recorded: significantly reduce the viability
Potential killing effects on HTB-178 tumor cells, 1st [1]: YES;
Potential killing effects on HTB-178 tumor cells, 2nd [1]: YES.
Fraction of damaged DNA with long comet tails (DNA): significantly increased the fraction of damaged DNA with long comet tails
cytotoxicity at 24 h, 10 uM (in vitro): 84%

O=C(NCc1cccnc1)/C(=C/c1ccc(-c2ccc(Cl)cc2)o1)S(=O)(=O)c1ccccc1 [Gr-7C]
Assay 7: H2O2-resistant, at 10 uM, validated by propidium iodide (PI) cell-death imaging (WI-38 cells; 10 uM): YES
cytotoxicity at 10 µM (WI-38 cells; [3]): 0.82%
cytotoxicity at 10 µM (WI-38 cells; [4]): 2.36%
cytotoxicity at 10 µM (WI-38 cells; [5]): 3.73%
cytotoxicity at 10 µM (WI-38 cells; [6]): 12.5%
Potential targets: human protein targets (confirmed) (human protein targets): ABHD5, ADRB2, ATXN2, BARD1, BRCA1, CFTR, CHRM4, CYP2C19,; also recorded: EPAS1, GMNN, GPR183, HIF1A, HNF4A, IDH1, IL1B, KCNJ1, MDM2,; also recorded: MDM4, MITF, NCOA1, NCOA2, NCOA3, NFE2L2, NOD1, NOD2, NOD2,; also recorded: NPBWR1, NPSR1, NPY1R, NPY2R, NR2E3, NR2F2, NR5A1, NR5A2, PLIN5,; also recorded: RIPK2, S1PR1, S1PR2, TDP1, TNF, VDR
cytotoxicity at 24 h, 10 uM (in vitro): 60%

O=C(c1ccc([N+](=O)[O-])o1)N1CCc2ccccc21 [O13]
Assay 7: H2O2-resistant, at 10 uM, validated by propidium iodide (PI) cell-death imaging (WI-38 cells; 10 uM): YES
cytotoxicity at 10 µM (WI-38 cells; [3]): 1.13%
cytotoxicity at 10 µM (WI-38 cells; [4]): 2.56%
cytotoxicity at 10 µM (WI-38 cells; [5]): 7.03%
cytotoxicity at 10 µM (WI-38 cells; [6]): 4.8%
Potential killing effects on HTB-178 tumor cells, 1st [1]: YES;
Potential targets: human protein targets (confirmed) (human protein targets): CASP3, DRD2, GMNN, HCRTR1, NR5A1, NR5A2, SENP6, SENP8, SSP1, and TDP1
SENP8 inhibition (SENP8): ~50%
SENP6 inhibition (SENP6): ~50%

[O-][n+]1onc2c3nsnc3c(Br)cc21 [O17]
Assay 7: H2O2-resistant, at 10 uM, validated by propidium iodide (PI) cell-death imaging (WI-38 cells; 10 uM): YES
cytotoxicity at 10 µM (WI-38 cells; [3]): 0.8%
cytotoxicity at 10 µM (WI-38 cells; [4]): 2.83%
cytotoxicity at 10 µM (WI-38 cells; [6]): 6.6%
Cell viability in two breast cancer-derived tumor cell lines [2]: significantly reduce cell viability
Potential killing effects on HTB-178 tumor cells, 1st [1]: YES;
Potential killing effects on HTB-178 tumor cells, 2nd [1]: YES.
